Several values for one entry are separate records, joined by “and”; a condition that tells them apart may be missing. Equal entries are not always repeated. Where two headings read alike, the source gives them in different places.
How the values were obtained:
[1] = Pharmacokinetics of CR8 in mouse plasma after oral and i.v. administration (HPLC-UV); assay type: in vivo, mice
Description: 70 μl plasma was added to 140 μl methanol and vortexed for 15 sec. Samples were centrifuged at 10000 g for 10 minutes, and 50 μl from the supernatant were injected into the HPLC system.
Female BALB/c mice 8–10 weeks old and weighing 18–21 g were obtained from Scanbur, Sollentuna, Sweden. The mice were allowed to acclimatize to their surroundings for one week before starting treatment. The mice were fed pelleted food and water ad libitum.
CR8 was dissolved in DMSO: 50 mM HCl (10:90 v/v). The first group of mice received i.v. doses of CR8 (50 mg/kg body weight), the second received oral doses of CR8 (100 mg/kg body weight) and three control mice received vehicle alone. Three mice were sacrificed at each time point and blood samples were collected by cardiac puncture into heparinized tubes at 10, 20, 30, 60 min, 2, 4, 6, 8 h post administration. Blood samples were centrifuged immediately after collection at 3000 g for 5 min at 4°C and the plasma was prepared as mentioned previously. Supernatants were collected and all samples were frozen at −20°C directly after preparation until further analysis by HPLC. Other organs including liver, spleen, kidneys, brain, adipose tissue and lungs were removed, washed and snap frozen immediately in liquid nitrogen. Bone marrow was flushed from both femurs and mononuclear cells were counted and frozen. The samples were stored at −20°C to avoid any metabolic activity.
Parameters including distribution volume of the central compartment, elimination rate constant, plasma maximum concentration and micro constants were estimated. Clearance (Cl) and distribution volume at the steady state were calculated from the primary parameters. The plasma concentration versus time curves (AUC) were calculated from the model derived parameters, and the elimination half-lives were calculated from the slope of the terminal elimination phase. Bone marrow data were derived after adjustment of concentrations to 10^9 cells (= approx. 1 g of tissue). The pharmacokinetic modeling was performed using WinNonlin version 5.2 (Pharsight, USA).
Oral bioavailability (F) defined as the fraction of the oral administered dose of CR8 that reaches the systemic circulation was calculated according to the following formula:
F=AUCpo∗doseIV/AUCIV∗dosepo

[2] = Biodistribution of CR8 to mouse organs after oral administration; assay type: in vivo, mice; design: V2/F: unit not given here; conditions: for AUC / Beta-HL / V2/F / Cmax: single oral 100 mg/kg; for Tissue/plasma exposure ratio (% AUC organ vs. AUC plasma) / Kp: oral 100 mg/kg, 100 mg/kg; for Kp / Cmax: female, BALB/c, mouse; for Kp: po
Description: CR8 was dissolved in DMSO: 50 mM HCl (10:90 v/v). The first group of mice received i.v. doses of CR8 (50 mg/kg body weight), the second received oral doses of CR8 (100 mg/kg body weight) and three control mice received vehicle alone. […] Supernatants were collected and all samples were frozen at −20°C directly after preparation until further analysis by HPLC. Other organs including liver, spleen, kidneys, brain, adipose tissue and lungs were removed, washed and snap frozen immediately in liquid nitrogen. Bone marrow was flushed from both femurs and mononuclear cells were counted and frozen. The samples were stored at −20°C to avoid any metabolic activity. […] Femurs were removed and cleaned; bone marrow was flushed with 0.3 ml of PBS and single cell suspension was prepared by gentle flushing through needle and syringe. Nucleated cells were counted using Türk solution and bone marrow was stored at −20°C until assay. Parameters including distribution volume of the central compartment, elimination rate constant, plasma maximum concentration and micro constants were estimated. Clearance (Cl) and distribution volume at the steady state were calculated from the primary parameters. The plasma concentration versus time curves (AUC) were calculated from the model derived parameters, and the elimination half-lives were calculated from the slope of the terminal elimination phase. Bone marrow data were derived after adjustment of concentrations to 10^9 cells (= approx. 1 g of tissue). The pharmacokinetic modeling was performed using WinNonlin version 5.2 (Pharsight, USA).

[3] = Stability of CR8 in plasma quality control samples and solution; assay type: physicochemical, human
Description: Four quality control samples at concentrations of 0.75, 1.5, 3.5 and 7.0 μg/ml were also prepared in triplicate and stored at room temperature, +4°C and −20°C for stability testing.
The stability of CR8 was determined in plasma samples using concentrations of 0.75, 1.5, 3.5 and 7.0 μg/ml (in triplicate). The samples were kept at room temperature, +4°C and −20°C and analyzed twice weekly for 2 months. Peak areas of all the samples were compared to peak areas obtained at time zero.

[4] = system: tumor cell lines; conditions: cited from earlier work
[5] = system: CDK5/p25; design: method as in PMID 18574471; conditions: cited from earlier work
[6] = target: casein kinase 1 (CK1); design: method as in PMID 18574471; conditions: cited from earlier work
[7] = system: CDK; design: method as in PMID 18574471; conditions: in-vitro; cited from earlier work
[8] = given i.v. at the same dosage; cited from earlier work
[9] = bone marrow vs plasma; cited from earlier work

CC[C@H](CO)Nc1nc(NCc2ccc(-c3ccccn3)cc2)c2ncn(C(C)C)c2n1 [CR8]
Beta-HL ([1]; Plasma, single oral 100 mg/kg): 3.10 h | V2/F ([1]; Plasma, single oral 100 mg/kg): 21.0 | half-life ([1]; female, BALB/c, mouse, plasma, female BALB/c mice, read-out: Half-life (converted)): ~3 h | AUC ([1]; female, BALB/c, mouse, plasma, iv, 50 mg/kg, plasma, 50 mg/kg intravenously, read-out: AUC): ~45000 ng·h/mL | Cmax ([1]; female, BALB/c, mouse, plasma, iv, 50 mg/kg, plasma, i.v. bolus 50 mg/kg, estimated, read-out: Cmax (maximum reached concentration)): > 100000 ng/mL | AUC ([1]; female, BALB/c, mouse, plasma, iv, 50 mg/kg, plasma, i.v. bolus 50 mg/kg, mice, read-out: AUC (area under time plasma concentration curve)): 44400 ± 3300 ng·h/mL | half-life ([1]; female, BALB/c, mouse, plasma, iv, 50 mg/kg, plasma, i.v. bolus 50 mg/kg, read-out: Tα (first elimination half-life) (converted)): 0.11 ± 0.01 h | half-life ([1]; female, BALB/c, mouse, plasma, iv, 50 mg/kg, plasma, i.v. bolus 50 mg/kg, read-out: Tβ (terminal elimination half-life) (converted)): 2.95 ± 0.11 h | clearance ([1]; female, BALB/c, mouse, plasma, iv, i.v. bolus 50 mg/kg, read-out: CL (clearance) (converted)): 0.383 mL/min | Vd ([1]; female, BALB/c, mouse, plasma, iv, i.v. bolus 50 mg/kg, read-out: Vss (distribution volume at steady state)): 0.044 ± 0.004 L | half-life ([1]; female, BALB/c, mouse, plasma, mice, read-out: Elimination half-life (converted)): ~3 h | bioavailability ([1]; female, BALB/c, mouse, plasma, oral, 100 mg/kg, oral 100 mg/kg vs i.v. 50 mg/kg, F=AUCpo*doseIV/AUCIV*dosepo): ~100% | Tmax ([1]; female, BALB/c, mouse, plasma, oral, 100 mg/kg, mice, read-out: Time of maximum concentrations (converted)): 0.5 h | AUC ([1]; female, BALB/c, mouse, plasma, po, 100 mg/kg, Plasma, single oral 100 mg/kg, read-out: AUC): 96000 ng·h/mL | Cmax ([1]; female, BALB/c, mouse, plasma, po, 100 mg/kg, Plasma, single oral 100 mg/kg, read-out: Cmax): 34300 ng/mL | AUC ([1]; female, BALB/c, mouse, plasma, po, 100 mg/kg, plasma, 100 mg/kg orally, read-out: AUC): ~100000 ng·h/mL | AUC ([1]; female, BALB/c, mouse, plasma, po, 100 mg/kg, plasma, single oral 100 mg/kg, mice, read-out: AUC (area under time plasma concentration curve)): 96300 ± 10500 ng·h/mL | Cmax ([1]; female, BALB/c, mouse, plasma, po, 100 mg/kg, plasma, single oral 100 mg/kg, read-out: Cmax (maximum reached concentration)): 34300 ± 1940 ng/mL | half-life ([1]; female, BALB/c, mouse, plasma, po, 100 mg/kg, plasma, single oral 100 mg/kg, read-out: Tα (first elimination half-life) (converted)): 1.3 ± 0.43 h | half-life ([1]; female, BALB/c, mouse, plasma, po, 100 mg/kg, plasma, single oral 100 mg/kg, read-out: Tβ (terminal elimination half-life) (converted)): 3.1 ± 0.35 h | Cmax after i.v. compared to oral administration ([1]; i.v. 50 mg/kg vs oral 100 mg/kg): 4 fold | CL (clearance) ([1]; single oral 100 mg/kg): 21 ± 2 mL/h | Vss (distribution volume at steady state) ([1]; single oral 100 mg/kg): 21 ± 3 mL | AUC ([2]; Adipose tissue): 181 µg·h/g | Beta-HL ([2]; Adipose tissue): 2.40 h | V2/F ([2]; Adipose tissue): 38.2 | AUC ([2]; Bone marrow (10^9 cells = approx. 1 g)): 34 µg·h/g | Beta-HL ([2]; Bone marrow): 1.98 h | V2/F ([2]; Bone marrow): 84.5 | AUC ([2]; Brain): 14 µg·h/g | Beta-HL ([2]; Brain): 2.12 h | V2/F ([2]; Brain): 447.5 | AUC ([2]; Kidney): 145 µg·h/g | Beta-HL ([2]; Kidney): 2.62 h | V2/F ([2]; Kidney): 52.2 | AUC ([2]; Liver): 197 µg·h/g | Beta-HL ([2]; Liver): 2.43 h | V2/F ([2]; Liver): 35.8 | AUC ([2]; Lung): 77 µg·h/g | Beta-HL ([2]; Lung): 2.58 h | V2/F ([2]; Lung): 96.7 | AUC ([2]; Spleen): 40 µg·h/g | Beta-HL ([2]; Spleen): 2.60 h | V2/F ([2]; Spleen): 74.5 | Tissue/plasma exposure ratio (% AUC organ vs. AUC plasma) ([2]; adipose tissue): 180% | Kp ([2]; adipose tissue, adipose tissue, read-out: Tissue/plasma exposure ratio (% AUC organ vs. AUC plasma)): 1.88 | Kp ([2]; bone marrow, bone marrow, concentrations normalized to tissue weight/g, read-out: Tissue/plasma exposure ratio (% AUC organ vs. AUC plasma)): 0.3 | Kp ([2]; brain, brain, read-out: Tissue/plasma exposure ratio (% AUC organ vs. AUC plasma; concentration in brain vs plasma)): 0.15 | Kp ([2]; kidney, kidney, read-out: Tissue/plasma exposure ratio (% AUC organ vs. AUC plasma)): 1.5 | Kp ([2]; liver, liver, read-out: Tissue/plasma exposure ratio (% AUC organ vs. AUC plasma)): 2.05 | Kp ([2]; lung, lung, read-out: Tissue/plasma exposure ratio): 0.8 | Kp ([2]; spleen, spleen, read-out: Tissue/plasma exposure ratio): 0.5 | Cmax ([2]; Adipose tissue): 48700 ng/g | Cmax ([2]; Bone marrow): 10600 ng/g | Cmax ([2]; Brain): 4100 ng/g | Cmax ([2]; Kidney): 36000 ng/g | Cmax ([2]; Liver): 52400 ng/g | Cmax ([2]; Lung): 19300 ng/g | Cmax ([2]; Spleen): 27700 ng/g | Tissue/plasma exposure ratio (% AUC organ vs. AUC plasma) ([2]; liver): 200% | Stability (concentration of QC samples remaining vs time zero) ([3]; plasma QC samples, 2 months at room temperature, +4°C or −20°C): approximately 97 ± 3.5% | Time for which stable ([3]; room temperature, in both solution and plasma): 2 months | IC50 ([4]; different cell lines, read-out: Optimal concentration for pharmacological effect in-vitro in different cell lines (reported average IC50)): ~700 nM and 700 nM | Anti-tumor IC50 values found in-vitro ([4]; in-vitro, reference not given): 0.3 µg/mL | IC50 [5]: 120 nM | IC50 [6]: 610 nM | Potency as CDK inhibitor relative to roscovitine [7]: 2–4 fold

CC[C@H](CO)Nc1nc(NCc2ccccc2)c2ncn(C(C)C)c2n1 [roscovitine]
Reported half-life [8]: approximately 1 hour | Distribution to bone marrow [9]: 1.5%

Source: PMC3849647, “Pharmacokinetics and biodistribution of the cyclin-dependent kinase inhibitor -CR8- in mice” (BMC Pharmacology & Toxicology, 2013)
